{"source": "patent US20160215348A1", "about": "“GENE EXPRESSION BIOMARKERS AND THEIR USE FOR DIAGNOSTIC AND PROGNOSTIC APPLICATION IN PATIENTS POTENTIALLY IN NEED OF HDAC INHIBITOR TREATMENT” (4SC AG, priority 2013, published 2016)", "key": {"ZFP64 [1]": {"tested_on": "ZFP64", "assay": "ZFP64 fold change in HepG2, whole blood and PBMCs of a healthy donor (FIG. 4d)", "format": "cell-based, human", "conditions": "HepG2, whole blood, PBMC; resminostat 5 μM (combination: + sorafenib 5 μM); vs DMSO control", "experimental": "For comparison reasons, the siRNA experiment (ZFP64 knockdown) on HepG2 cells is shown. The samples are compared to a DMSO control and the fold change is determined with the exception of the siRNA samples, which are compared to the resminostat sample.\n(§1) To determine RNA expression levels of ZFP64 in different cancer cell lines and PBMC, the cell membranes were chemically disrupted with a buffer containing guanidine isothiocycanate, which lyses the cells and supports the binding of RNA to a silica membrane and RNA was extracted via a filter-based spin column."}, "HIST2H4A/B": {"tested_on": "HIST2H4A/B", "assay": "Gene expression in HepG2 cancer cells (in vitro)", "format": "cell-based, human", "conditions": "standardized to 0 h", "experimental": "(§2) Hatched columns relate to blood, black columns relate to HepG2 cells, white boxes relate to HT 29 cells. Values are standardized to the value at 0 h.\n(§3) Samples were obtained and gene expressions were determined with the methods as described herein below. The results are shown in below table 3 and FIGS. 2 and 3\n(§4) The above values represent a mean value which was determined on the basis of 2 biological replicates, for each of which 3 technical replicates were prepared. […] The level of gene expression determined in peripheral blood samples can be correlated with a certain level of activity of HDAC in the diseased cells, e.g. by applying an appropriate conversion factor or conversion table, which may be determined for each specific disease, and/or patient group.\nas §1\n(§5) The High-Capacity cDNA Reverse Transcription Kit (Applied Biosystems) was used for reverse transcription of total RNA into single stranded cDNA with the aid of random hexamer primers according to the manufacturer's instructions. Briefly, for the reaction mix total RNA was mixed with random primers in excess, 4 mM dNTP Mix, 2.5 U/reaction, reverse transcriptase and nuclease free water. The reverse transcription took place in a thermal cycler under the following conditions: 25° C. for 10 min, 37° C. for 120 min, 85° C. for 5 min, followed by 4° C. for cooling down the reaction. The reverse transcription can be done in principle as well with other reverse transcriptases, primers and temperature protocols. Whenever possible, 250 ng total RNA were reverse transcribed if not available, lower amounts were used.\n(§6) Custom TaqMan® Arrays (Applied Biosystems) in Format 16 were designed for the gene expression analysis of biomarkers of the present invention and housekeeping genes as outlined in table 4. These arrays allow for qPCR analysis of 8 samples per card. Of course, all reactions can be done as well by conventional qPCR analysis with specific primers."}, "ZFP64 [2]": {"tested_on": "ZFP64", "assay": "Gene expression in HepG2 cancer cells (in vitro)", "format": "cell-based, human", "conditions": "standardized to 0 h", "experimental": "as §2, §3, §4, §1, §5, §6"}, "KDELC2": {"tested_on": "KDELC2", "assay": "Gene expression in HepG2 cancer cells (in vitro)", "format": "cell-based, human", "conditions": "standardized to 0 h", "experimental": "as §2, §3, §4, §1, §5, §6"}, "TBP": {"tested_on": "TBP", "assay": "Gene expression in HepG2 cancer cells (in vitro)", "format": "cell-based, human", "conditions": "standardized to 0 h", "experimental": "as §2, §3, §4, §1, §5, §6"}, "18S": {"tested_on": "18S", "assay": "Gene expression in HepG2 cancer cells (in vitro)", "format": "cell-based, human", "conditions": "standardized to 0 h", "experimental": "as §2, §3, §4, §1, §5, §6"}, "GAPDH": {"tested_on": "GAPDH", "assay": "Gene expression in HepG2 cancer cells (in vitro)", "format": "cell-based, human", "conditions": "standardized to 0 h", "experimental": "as §2, §3, §4, §1, §5, §6"}, "DPP3": {"tested_on": "DPP3", "assay": "Gene expression in HepG2 cancer cells (in vitro)", "format": "cell-based, human", "conditions": "standardized to 0 h", "experimental": "as §2, §3, §4, §1, §5, §6"}, "MICALL1": {"tested_on": "MICALL1", "assay": "Gene expression in HepG2 cancer cells (in vitro)", "format": "cell-based, human", "conditions": "standardized to 0 h", "experimental": "as §2, §3, §4, §1, §5, §6"}, "CCDC43": {"tested_on": "CCDC43", "assay": "Gene expression in HepG2 cancer cells (in vitro)", "format": "cell-based, human", "conditions": "standardized to 0 h", "experimental": "as §2, §3, §4, §1, §5, §6"}, "[3]": {"assay": "Dose escalation 100-800 mg in cancer patients, dose-limiting toxicity", "format": "in vivo, human", "conditions": "highest dose group (800 mg); one patient within the first 3 patients", "experimental": "HDAC enzyme activity, H4 Histone acetylation and gene expression of a group of genes were measured in the dose groups 100 mg, 200 mg, 400 mg, 600 mg and 800 mg. Each group consisted of 3 patients with different types of tumors. The highest dose group consisted of 6 patients due to a dose-limiting toxicity [DLT] […] The treatment cycles were as detailed for the SAPHIRE, SHELTER and SHORE clinical trials described herein below."}, "[4]": {"tested_on": "hepatocellular cancer (HCC)", "assay": "SHELTER clinical trial, overall survival (Kaplan-Meier) by baseline ZFP64 expression", "format": "in vivo, human", "experimental": "Resminostat was explored as monotherapy and in combination with sorafenib. Patients with advanced HCC (BCLC staging B/C) were included in a multi-center, two-arm trial. […] A dose escalation of resminostat (range 200 to 600 mg) combined with Sorafenib (400 or 800 mg) was performed. Arm A investigated the drug combination (resminostat+sorafenib), Arm B the monotherapy of resminostat (600 mg). Primary objective was the progression-free survival rate (PFSR) after 12 weeks (w). Secondary objectives included safety, tolerability, tumor response, PFS, TTP, OS and the analyses of PK and biomarkers (BM), incl. HDAC enzyme inhibition, histone acetylation and gene expressions in peripheral blood. Based on the results and indications seen in the analysis in example 3a, the dCt values of ZFP64 at baseline were treated with the method described here for determining the split between gene expression groups. Data was processed as follows: Gene expression data of the genes of interest was gathered as real time PCR dCt values relative to the expression of housekeeping genes for a specific time point, e.g. at baseline prior to treatment start. […] Said two groups were then compared in Kaplan-Meier analyses for OS, PFS in order to identify a statistically significant difference that separates the patients' probability for OS, PFS."}, "[5]": {"conditions": "SHELTER patients on resminostat 600 mg or resminostat 600 mg + sorafenib 400 mg, pooled, split at 75th percentile"}, "[6]": {"conditions": "SHELTER, single arm, resminostat 600 mg (combination: + sorafenib 400 mg), split at 75th percentile"}, "[7]": {"conditions": "all available SHELTER patients (monotherapy and sorafenib combination arms pooled), split 60% high/40% low"}}, "data": [{"smiles": "CN(C)Cc1ccc(S(=O)(=O)n2ccc(/C=C/C(=O)NO)c2)cc1", "note": "[resminostat, (E)-3-(1-(4-((dimethylamino)methyl)phenylsulfonyl)-1H-pyrrol-3-yl)-N-hydroxyacrylamide]", "values": [{"measurement": "Regulation of ZFP64, fold change (FIG. 4d)", "setting": "ZFP64 [1]", "result": "down-regulation"}, {"measurement": "Expression level, HIST2H4A/B", "setting": "HIST2H4A/B; 2 h", "result": 0.88}, {"measurement": "Expression level, HIST2H4A/B", "setting": "HIST2H4A/B; 5 h", "result": 1.17}, {"measurement": "Expression level, ZFP64", "setting": "ZFP64 [2]; 2 h", "result": 0.46}, {"measurement": "Expression level, ZFP64", "setting": "ZFP64 [2]; 5 h", "result": 0.19}, {"measurement": "Expression level, KDELC2", "setting": "KDELC2; 2 h", "result": 0.84}, {"measurement": "Expression level, KDELC2", "setting": "KDELC2; 5 h", "result": 0.54}, {"measurement": "Expression level, TBP (housekeeping gene)", "setting": "TBP; 2 h", "result": 1.15}, {"measurement": "Expression level, TBP (housekeeping gene)", "setting": "TBP; 5 h", "result": 1.12}, {"measurement": "Expression level, 18s (housekeeping gene)", "setting": "18S; 2 h", "result": 0.91}, {"measurement": "Expression level, 18s (housekeeping gene)", "setting": "18S; 5 h", "result": 0.87}, {"measurement": "Expression level, GAPDH (housekeeping gene)", "setting": "GAPDH; 2 h", "result": 0.96}, {"measurement": "Expression level, GAPDH (housekeeping gene)", "setting": "GAPDH; 5 h", "result": 1.03}, {"measurement": "Expression level, DPP3", "setting": "DPP3; 2 h", "result": 0.86}, {"measurement": "Expression level, DPP3", "setting": "DPP3; 5 h", "result": 0.72}, {"measurement": "Expression level, MICALL1", "setting": "MICALL1; 2 h", "result": 0.85}, {"measurement": "Expression level, MICALL1", "setting": "MICALL1; 5 h", "result": 0.50}, {"measurement": "Expression level, CCDC43", "setting": "CCDC43; 2 h", "result": 0.70}, {"measurement": "Expression level, CCDC43", "setting": "CCDC43; 5 h", "result": 0.46}, {"measurement": "Dose-limiting toxicity [DLT]", "setting": "[3]", "result": "fatigue and nausea grade 3"}, {"measurement": "median OS (high ZFP64 expression)", "setting": "[4]; [5]", "result": 9.4, "unit": "months"}, {"measurement": "median OS (low ZFP64 expression)", "setting": "[4]; [5]", "result": 5.1, "unit": "months"}, {"measurement": "overall median OS for the two groups", "setting": "[4]; SHELTER, single arm, resminostat 600 mg (combination: + sorafenib 400 mg)", "result": 3.7, "unit": "months"}, {"measurement": "median OS for high ZFP64 expression", "setting": "[4]; [6]", "result": 7.0, "unit": "months"}, {"measurement": "median OS for low ZFP64 expression", "setting": "[4]; [6]", "result": 0.9, "unit": "months"}, {"measurement": "median OS (high ZFP64 expression)", "setting": "[4]; [7]", "result": 8, "unit": "months"}, {"measurement": "median OS (low ZFP64 expression)", "setting": "[4]; [7]", "result": 3.9, "unit": "months"}]}]}
